From ChEMBL document CHEMBL6153166, “Innovative Protein Degraders for Targeted Cancer and Viral Therapy” (ACS Med Chem Lett, 2025)

Each compound was assayed against Sequestosome-1 (Homo sapiens, UniProt Q13501) (assay: Inhibition of biotin-labeled Halo/His-tagged p62 (unknown origin) incubated for 30 mins by AlphaLISA competition assay).
Sequence of Sequestosome-1 (Q13501 whole entry): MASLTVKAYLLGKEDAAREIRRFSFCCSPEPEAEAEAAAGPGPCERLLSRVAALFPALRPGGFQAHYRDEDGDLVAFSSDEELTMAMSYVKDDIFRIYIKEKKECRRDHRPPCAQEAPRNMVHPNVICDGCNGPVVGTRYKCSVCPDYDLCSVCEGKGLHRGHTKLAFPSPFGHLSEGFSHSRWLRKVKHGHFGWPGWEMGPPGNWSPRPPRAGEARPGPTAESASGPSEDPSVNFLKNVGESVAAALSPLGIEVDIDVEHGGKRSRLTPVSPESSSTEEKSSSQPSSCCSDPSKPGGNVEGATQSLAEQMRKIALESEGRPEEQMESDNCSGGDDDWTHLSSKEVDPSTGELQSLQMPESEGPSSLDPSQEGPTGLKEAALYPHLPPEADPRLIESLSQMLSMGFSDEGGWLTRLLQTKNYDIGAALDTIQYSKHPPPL

SMILES	IC50
CCc1cc2c(cc1N1CCN(C(=O)CCCN3C[C@H](NC(=O)[C@@H](N)CCCn4ccnc4N)C(C)(C)C3)CC1)C(C)(C)C1Nc3cc(C#N)ccc3C1C2=O (stereo partly specified)	≤ 1.5 µM
CCc1cc2c(cc1N1CCN(C(=O)CCCN3CCC(C)(C)C(NC(=O)[C@@H](N)CCCn4ccnc4N)C3)CC1)C(C)(C)C1Nc3cc(C#N)ccc3C1C2=O (stereo partly specified)	≤ 1.5 µM
CCc1cc2c(cc1N1CCN(C(=O)CCCN3C[C@H](NC(=O)[C@@H](N)CCCc4cccnc4N)C(C)(C)C3)CC1)C(C)(C)C1Nc3cc(C#N)ccc3C1C2=O (stereo partly specified)	≤ 1.5 µM
CCc1cc2c(cc1N1CCN(C(=O)CCCN3CC[C@@H](NC(=O)[C@@H](N)CCCn4ccnc4N)C3)CC1)C(C)(C)C1Nc3cc(C#N)ccc3C1C2=O (stereo partly specified)	≤ 1.5 µM
CCc1cc2c(cc1N1CCN(C(=O)CCCN3C[C@H](NC(=O)[C@@H](N)CCCc4cncnc4N)C(C)(C)C3)CC1)C(C)(C)C1Nc3cc(C#N)ccc3C1C2=O (stereo partly specified)	≤ 1.5 µM
CCc1cc2c(cc1N1CCN(C(=O)CCCN3C[C@H](NC(=O)[C@@H](N)CCCn4ccnc4N)C4(CC4)C3)CC1)C(C)(C)C1Nc3cc(C#N)ccc3C1C2=O (stereo partly specified)	≤ 1.5 µM
